Patent US8859628B2, “Method for preventing, treating and diagnosing disorders of protein aggregation” (priority 2003, dated 2014)
“Also recorded” adds a separate entry of the source.

Key:
TgCRND8 mice [1] = assay: Plasma Aβ levels; assay type: in vivo, mouse
Method: (§1) Plasma and Cerebral Aβ Content—Hemi-brain samples were homogenized in a buffered sucrose solution, followed by either 0.4% diethylamine/100 mM NaCl for soluble Aβ levels or cold formic acid for the isolation of total Aβ. After neutralization the samples were diluted and analyzed for Aβ40 and Aβ42 using commercially available kits (BIOSOURCE International). Each hemisphere was analyzed in triplicate with the mean±SEM reported. Western blot analyses were performed on all fractions using urea gels for Aβ species analyses. Aβ was detected using 6E10 (BIOSOURCE International) and Enhanced Chemiluminenscence (Amersham).
(§2) Plasma and Cerebral Aβ Content—Hemi-brain samples were homogenized in a buffered sucrose solution, followed by either 0.4% diethylamine/100 mM NaCl for soluble Aβ levels or cold formic acid for the isolation of total Aβ. After neutralization the samples were diluted and analyzed for Aβ40 and Aβ42 using commercially available kits (BIOSOURCE International). Each hemisphere was analyzed in triplicate with the mean±SEM reported.

TgCRND8 mice [2] = assay: Morris Water Maze, spatial reference memory version, three-day trial paradigm (treatment/reversal study); assay type: in vivo, mouse; settings: for cognitive function, treated TgCRND8 mice vs non-Tg littermates (words): 1 month treatment from 5 months of age, three-day paradigm
Method: A cohort entered the study at 5 months of age and outcomes were analyzed at 6-months of age. The body weight, coat characteristics and in cage behavior was monitored. All experiments were performed according to the Canadian Council on Animal Care guidelines.
(§3) Behavioral Test—Reversal Study—Mice entered the Morris water maze test with a hidden platform on day one without pretraining. Mice were tested for 3 days with six trials per day. On the fourth day, the platform was removed from the pool and each mouse received one 30-s swim probe trial. On the last day the animals underwent a cue test in order to evaluate swimming ability, eye sight and general cognition. The cue test is composed at the platform being placed in a different quadrant than that used for testing and is tagged with a flag. Animals are allowed 60 s to find the platform. […] Behavioural data was analysed using a mixed model of factorial analysis of variance (ANOVA) with drug or genotype and training sessions as repeated measure factors.
The cognitive function of TgCRND8 mice was assessed using the spatial reference memory version of the Morris Water Maze using a three day trial paradigm (FIGS. 4-8).
Behavioural data was analysed using a mixed model of factorial analysis of variance (ANOVA) with drug and genotype as between subject variables and training sessions as within subject variable.
(§4) In these experiments, the dosage and oral administration of compounds, and the behavioral and neurochemical assays were the same as those employed in the above treatment experiments.

TgCRND8 mice [3] = settings: mouse, in vivo
Excerpt: Animals were sacrificed after one month of treatment and analysed for pathological outcomes.
as §4

TgCRND8 mice [4] = assay: Cerebral Aβ content (Aβ40 and Aβ42 kits on hemi-brain homogenates); assay type: in vivo, mouse; set-up: Total Aβ: unit not given here
Method: as §1, §2

TgCRND8 mice [5] = assay: Gliosis quantitation (GFAP astrocytes, CD68 microglia); assay type: in vivo, mouse; settings: prevention
Excerpt: Gliosis Quantitation—Five randomly selected, evenly spaced, sagittal sections were collected from paraformaldehyde-fixed and frozen hemispheres of treated and control mice. Sections were immunolabelled for astrocytes with anti-rat GFAP IgG2a (Dako; diluted 1:50) and for microglia with anti-rat CD68 IgG2b (Dako; 1:50).
Serial sagittal sections were stained with the astrocytic marker glial fibrillary acidic protein (GFAP) and quantitated for percent brain area covered by astrogliosis.

non-Tg littermates = assay: Morris Water Maze performance of treated non-Tg littermates; assay type: in vivo, mouse; settings: treated vs untreated non-Tg
Method: (§5) Behavioral tests—After non-spatial pre-training, mice underwent place discrimination training for 5 days with 4 trials per day. Behavioral data was analyzed using a mixed model of factorial analysis of variance (ANOVA) with drug or genotype and training sessions as repeated measure factors.
as §3

TgCRND8 mice [6] = assay: Morris Water Maze, spatial reference memory version, five-day trial paradigm (prevention study); assay type: in vivo, mouse; settings: 6 months of age
Method: Age and sex-matched cohorts of TgCRND8 mice and non-transgenic littermates (n=35 in each cohort) were either untreated, or were given a compound of the present invention as indicated below at 30 mg/day/mouse beginning at age of about 6 weeks. The mice were followed for outcome measures cognitive function, brain Aβ levels, brain pathology, and survival at 4 months and 6 months of age.
Two cohorts entered the study at 6 weeks of age and outcomes were analyzed at 4- and 6-months of age. The body weight, coat characteristics and in cage behavior was monitored. All experiments were performed according to the Canadian Council on Animal Care guidelines.
as §5
The cognitive function of TgCRND8 mice was assessed using the spatial reference memory version of the Morris Water Maze using a five-day trial paradigm (FIGS. 1C-1H). […] The improved performance was also not due to nutritional or caloric effects because body weight, activity, and coat condition were not different between treated and untreated cohorts. […] Gender effects were not significant between any treatment group (p=0.85).

TgCRND8 mice [7] = assay: Vascular amyloid burden; assay type: in vivo, mouse; settings: prevention, 6 months of age
Method: (§6) Cerebral amyloid burden—Brains were removed and one hemisphere was fixed in 4% paraformaldehyde and embedded in paraffin wax in the mid saggital plane. To generate sets of systematic uniform random sections, 5 μm serial sections were collected across the entire hemisphere. Sets of sections at […] intervals were used for analyses (10-14 sections/set). Plaque were identified after antigen retrieval with formic acid, and incubated with primary anti-Aβ antibody (Dako M-0872), followed by secondary antibody (Dako StreptABCcomplex/horseradish kit). End products were visualized with DAB counter-stained with hematoxylin. Amyloid plaque burden was assessed using Leco IA-3001 image analysis software interfaced with Leica microscope and Hitachi KP-M1U CCD video camera. Vascular burden was analyzed similarly and a dissector was used to measure the diameter of affected vessels.
Alzheimer's disease is characterized by the presence of both parenchymal and vascular amyloid deposits. In untreated 6 month old TgCRND8 mice approximately 0.03% of the brain area is associated with vascular amyloid.

TgCRND8 mice [8] = assay: Cerebral amyloid plaque burden (anti-Aβ immunostaining, image analysis); assay type: in vivo, mouse; settings: for amyloid/plaque burden vs untreated (words) / mean plaque size: prevention
Method: as §6
as §6, with “camera.” for “camera. Vascular burden was analyzed similarly and a dissector was used to measure the diameter of affected vessels.”

Aβ42 = molecular target: T1, Aβ42 (Homo sapiens, UniProt P05067); settings: cited from earlier work
T1 construct: The importance of residues 1-42 (Aβ42) in Alzheimer's disease was highlighted
T1 sequence (P05067 672-713 limits assumed): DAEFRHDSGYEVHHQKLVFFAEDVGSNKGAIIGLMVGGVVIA

amyloid-beta peptide = settings: cited from earlier work
TgCRND8 mice [9] = assay: Survival census (Kaplan-Meier); assay type: in vivo, mouse; settings: vs untreated TgCRND8
Method: Survival Census—The probability of survival was assessed by the Kaplan-Meier technique, computing the probability of survival at every occurrence of death, thus making it suitable for small sample sizes. For the analyses of survival, 35 mice were used for each treatment group. The comparison between treatments was reported using the Tarone-Ware test.

[10] = 28 days treatment from 5 months of age
[11] = 1 month treatment from 5 months of age
[12] = 1 month treatment, 30 mg/mouse/day from 5 months, analyzed at 6 months of age
[13] = 4 month prevention, 30 mg/mouse/day from 6 weeks of age
[14] = 6 month prevention, 30 mg/mouse/day from 6 weeks of age

## OC1C(O)C(O)C(O)C(O)C1O (stereo not drawn) [Allo-inositol, allo-inositol]
TgCRND8 mice [1]; 1 month treatment from 5 months of age, listed as allo-inositol
  effect on plasma Aβ levels in comparison to untreated (words): indistinguishable from untreated TgCRND8 plasma levels
TgCRND8 mice [1]; allo-inositol study: 1 month treatment (28 days) from 5 months of age
  Plasma Aβ Levels: 2458 ± 95 pg/mL
TgCRND8 mice [2]; listed as allo-inositol
  cognitive function, treated TgCRND8 mice vs non-Tg littermates (words): still significantly different from that of their non-transgenic littermates
TgCRND8 mice [2]; [10]
  cognitive function, treated vs untreated TgCRND8 mice (words): performed significantly better than untreated TgCRND8 mice
TgCRND8 mice [3]
  effects on blood chemistry or organ function: do not exhibit obvious deleterious effects on blood chemistry or organ function
TgCRND8 mice [3]; po
  ALP: 95 ± 16 U/L
  ALT: 44 ± 4 U/L
  Albumin: 32 ± 2 g/L
  Bilirubin: 2.9 ± 3 µmol/L
  Creatinine: 69 ± 64 µmol/L
  Globulin: 17 ± 3 g/L
  Glucose: 10 ± 3 mmol/L
  Icteria: Normal
  Lipemia: Normal
  Total protein: 48 ± 2 g/L
  Urea: 18.6 ± 13 mmol/L
TgCRND8 mice [4]; [10]
  effect on insoluble Aβ42 or Aβ40 (soluble and insoluble pools): did not significantly alter
  reduction of soluble Aβ42: 20%
TgCRND8 mice [4]; allo-inositol study: 1 month treatment (28 days) from 5 months of age, mean ± sem
  Brain Aβ42 Insoluble: 16336 ± 910 ng/gm wet brain

## OC1C(O)C(O)C(O)C(O)C1O (stereo not drawn) [Epi-Inositol, epi-inositol]
TgCRND8 mice [5]; 6 months of age
  astrogliosis/gliosis vs untreated: decrease in astrogliosis
TgCRND8 mice [5]; 6-months of age
  astrogliosis, percent brain area covered (GFAP): 0.388±0.039%
TgCRND8 mice [5]; 6 months
  microglial activation, % brain area: 0.248±0.02%
TgCRND8 mice [1]; 1 month treatment
  Plasma Aβ Levels: 2158 ± 157 pg/mL
TgCRND8 mice [1]; 1 month treatment from 5 months of age, listed as epi-inositol
  effect on plasma Aβ levels in comparison to untreated (words): Neither myo-inositol, epi-inositol nor scyllo-inositol treatment had any effect on plasma Aβ levels
TgCRND8 mice [1]; 4 month prevention
  Plasma Aβ Levels: 1082 ± 164 pg/mL
TgCRND8 mice [1]; 6 month prevention
  Plasma Aβ Levels: 952 ± 56 pg/mL
TgCRND8 mice [1]; prevention, 4- and 6-months of age
  effect on plasma Aβ levels in comparison to untreated (words): Neither epi-inositol nor scyllo-inositol treatment had any effect on plasma Aβ levels
non-Tg littermates
  effect on performance of non-Tg mice: had no effect on the performance of non-Tg mice; also recorded: not effected
TgCRND8 mice [6]
  cognitive function, treated vs untreated TgCRND8 mice (words): performed significantly better than untreated TgCRND8 mice
TgCRND8 mice [7]
  vascular amyloid burden vs untreated (words): No difference could be detected in the vascular amyloid burden
TgCRND8 mice [8]; [11]
  plaque burden vs untreated: not a significant decrease in the mean plaque size
TgCRND8 mice [8]; [12]
  Plaque Area: 459706 ± 49966 μm^2
  Plaque Count: 1342 ± 114
  Total Plaque Area/Total Brain Area: 0.134 ± 0.017%
TgCRND8 mice [8]; [13]
  Plaque Area: 65042 ± 5199 μm^2
  Plaque Count: 678 ± 64
  Total Plaque Area/Total Brain Area: 0.020 ± 0.001%
TgCRND8 mice [8]; [14]
  Plaque Area: 380456 ± 13498 μm^2
  Plaque Count: 979 ± 32
  Total Plaque Area/Total Brain Area: 0.096 ± 0.04%
TgCRND8 mice [8]; 6 months of age
  amyloid/plaque burden vs untreated (words): modest effect on amyloid burden
  mean plaque size: 370±9 μm^2
TgCRND8 mice [8]; 4 months of age
  mean plaque size: 95±4.3 μm^2
TgCRND8 mice [2]; listed as epi-inositol
  cognitive function, treated TgCRND8 mice vs non-Tg littermates (words): almost significantly different
TgCRND8 mice [4]; [11]
  Aβ load vs untreated: Aβ load was significantly decreased
TgCRND8 mice [4]; [12]
  Total Aβ: 17271 ± 415
TgCRND8 mice [4]; [13]
  Total Aβ: 4802 ± 176
TgCRND8 mice [4]; [14]
  Total Aβ: 18464 ± 229
TgCRND8 mice [4]; prevention, 6 months of age
  brain Aβ levels compared with untreated: rose to levels similar to those observed in untreated TgCRND8 mice

## OC1C(O)C(O)C(O)C(O)C1O (stereo not drawn) [chiro-inositol]
Aβ42
  structural transition from random to β-structure in Aβ42: epi- and scyllo- but not chiro-inositol were able to induce a structural transition

## O=P(O)(O)O[C@@H]1[C@H](O)[C@H](O)[C@@H](OP(=O)(O)O)[C@H](OP(=O)(O)O)[C@H]1O [inositol-1,4,5-triphosphate]
amyloid-beta peptide
  ability to inhibit amyloid-beta peptide fibrillogenesis: found not to be effective

## O=P(O)(O)O[C@H]1[C@H](O)[C@@H](O)[C@H](OP(=O)(O)O)[C@@H](O)[C@H]1O [inositol-1,4-bisphosphate]
amyloid-beta peptide
  ability to inhibit amyloid-beta peptide fibrillogenesis: found not to be effective

## O=P(O)(O)O[C@@H]1[C@@H](O)[C@H](O)[C@@H](O)[C@H](O)[C@@H]1O [inositol-monophosphate]
amyloid-beta peptide
  ability to inhibit amyloid-beta peptide fibrillogenesis: found not to be effective

## OC[C@@H](O)[C@@H](O)[C@H](O)[C@H](O)CO [mannitol, reference compound]
non-Tg littermates
  effect on performance of non-Tg mice: had no effect on the behaviour of non-Tg mice
TgCRND8 mice [6]
  cognitive function, treated TgCRND8 mice vs non-Tg littermates (words): significantly different from mannitol treated non-Tg littermates
  cognitive function, treated vs untreated TgCRND8 mice (words): had no effect on behavior; also recorded: indistinguishable from untreated TgCRND8 mice
TgCRND8 mice [6]; listed as Mannitol
  cognitive function, treated vs untreated TgCRND8 mice (words): not significantly different from untreated TgCRND8 mice
TgCRND8 mice [8]; 6 months of age
  amyloid/plaque burden vs untreated (words): did not alter the plaque load in TgCRND8 mice
TgCRND8 mice [8]; 6 months of age, listed as Mannitol
  amyloid/plaque burden vs untreated (words): indistinguishable from untreated TgCRND8 mice when plaque count was used as a measure of total plaque burden
TgCRND8 mice [9]
  effect on survival of TgCRND8 mice: had no effect on the survival of TgCRND8 mice; also recorded: not significantly different
